Reference: patent publication US20140180549A1, “AUTOMATED MACHINE FOR SELECTIVE IN SITU MANIPULATION OF PLANTS” (The Arizona Board of Regents on Behalf of the University of …, priority 2011, published 2014)

Tested on: Lettuce seedlings
Test: Comparison of automated (machine-vision spray) and hand plant thinning
Type: in vivo
Settings: for Time (hand laborer with hand hoe to remove weeds and lettuce plants missed during thinning): after thinning operation; for Time (hand laborer with hand hoe to remove weeds and lettuce plants missed during thinning) / Plant Count (number of live plants per acre after thinning): letters = Duncan's groups (P = 0.05); for machine performance as compared to hand thinning / Plant Count (number of live plants per acre after thinning) / Plant Spacing (average of the measured distance to each live plant after thinning): lettuce seedlings; for machine performance as compared to hand thinning: liquid product sprayed by automated thinning machine; for Plant Count (number of live plants per acre after thinning) / Plant Spacing (average of the measured distance to each live plant after thinning): product sprayed by automated thinning machine; for Plant Spacing (average of the measured distance to each live plant after thinning): letters = Duncan's new multiple range test groups (P = 0.05)
From the text: The machine vision system used in this example is as described in Example 1, except the spray nozzles were enclosed within a “hooded” box assembly to protect sprayed treatment from wind effects.
Lettuce seedlings were thinned either using the machine vision system with the indicated treatments. The far left column lists the seven treatments tested, including hand thinning (control) and six treatments used by the automated thinning machine. Of these six, the automated thinning machine was evaluated spraying five different liquid products (two acids, two fertilizers, and one herbicide) known to kill plants and one mechanical method (knife blade—“hula hoe” design). The second column is the cost of the material sprayed for the flow rates and travel speeds used. The third column is the average of the measured distance to each live plant after thinning. The fourth column is the number of live plants per acre after thinning. The fifth column is the time required by a hand laborer to walk through the field with a hand hoe and remove weeds in the row between crop plants and any lettuce plants missed during the thinning operation.

SMILES | Time (hand laborer with hand hoe to remove weeds and lettuce plants missed during thinning) | machine performance as compared to hand thinning | Plant Count (number of live plants per acre after thinning) | Plant Spacing (average of the measured distance to each live plant after thinning)
O=S(=O)(O)O [Sulfuric Acid (10%), Sulfuric Acid] | 2.7d hr/acre | no difference | 26,758b per/acre | 10.2a inch
C[n+]1ccc(-c2cc[n+](C)cc2)cc1 [Paraquat, reference compound] | 2.8d hr/acre | no difference | 27,692b per/acre | 9.6ab inch
CC(=O)O [Acetic Acid (20%), Acetic Acid] | 3.0cd hr/acre | – | 30,181b per/acre | 8.9b inch
